Laboratory results taken from patent US20100029554A1, “Composition and Methods for Treatment of Congestive Heart Failure” (Amylin Pharmaceuticals, Inc., priority 2006, published 2010).
Where a SMILES comes first, the peptide text is derived from it. Where no end group is shown, it is not given here. [ ]: non-standard residue; d: D form. Gly(octyl) = CCCCCCCC[C@H](N)C(=O)O

T1: GLP-1 receptor, endogenous in RINm5f cells (rat (RIN-m5F are called rat pancreas …, UniProt P32301 22-463))
T1 construct: whole, on cells; also called GLP-1 receptors; GLP (RIN)
T1 sequence (looked up): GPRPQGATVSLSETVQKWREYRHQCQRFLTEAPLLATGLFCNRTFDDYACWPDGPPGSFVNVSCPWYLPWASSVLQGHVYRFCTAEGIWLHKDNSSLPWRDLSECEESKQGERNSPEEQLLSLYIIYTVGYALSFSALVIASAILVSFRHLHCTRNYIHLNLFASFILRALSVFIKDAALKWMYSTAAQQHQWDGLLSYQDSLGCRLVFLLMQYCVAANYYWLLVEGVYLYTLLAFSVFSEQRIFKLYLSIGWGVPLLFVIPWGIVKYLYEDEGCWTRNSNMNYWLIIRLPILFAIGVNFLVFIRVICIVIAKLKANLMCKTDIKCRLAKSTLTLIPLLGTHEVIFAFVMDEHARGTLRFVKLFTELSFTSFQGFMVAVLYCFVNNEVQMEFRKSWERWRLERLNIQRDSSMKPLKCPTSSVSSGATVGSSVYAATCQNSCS


Tests used:
[1] = tested on: GLP/GIP/CT cyclase, RIN-m5F cells; test: GLP/GIP/CT Cyclase (RIN) assay; assay type: cell-based, rat; settings: cAMP, values without **
Procedure: GLP/GIP/CT Cyclase (RIN) Assay
Five μl of serially diluted peptides are transferred to the 384-well assay plate. Rat pancreas insulinoma cells (RIN-m5F) are detached from a tissue culture flask with Versene and washed once in buffer. Then RIN-m5F cells are resusupended in buffer at 2.5×10^6 cells/ml. Then 10 μl cells (2.5×10^4 cells) are added to all wells of the assay plate and cells are stimulated at room temperature in the dark for 30 minutes. The reaction is terminated with 10 μl of lysis buffer and incubated at room temperature for 4 hrs in the dark. cAMP content is measured using Perkin Elmer AlphaScreen™ cAMP assay kit and results are read on a Perkin Elmer Fusion fluorometer. The assay is completed in 384-well plates at 25 microliter volumes.

[2] = Plasma stability; assay type: in vitro ADME; settings: 20 μg/mL in plasma, 37° C., 0-5 hours
Procedure: To assess stability, the compound of interest is spiked into plasma at a concentration of 20 μg/mL. It is incubated at 37° C. for 0, 1, 2 3, 4, 5 hours in triplicate. At each time point, MeOH is added to a 96 well microtiter plate and then sample is added in a ratio of 1 part sample to 4 parts MeOH to quench the digestion reaction. Samples are mixed with multi-channel pipette or liquid handler. The plate is then centrifuged for 10 minutes and placed in an autosampler kept at 10° C. Samples are then injected into a mass spectrometer (API 3000, Applied Biosystems) equipped with an autosampler (Leap HTC Pal) and HPLC pumps (Shimadzu LC-10ADVP).

[3] = tested on: NH/Swiss mice; test: Glucose lowering assay; assay type: in vivo, mouse; settings: IP, 2 nmol/kg, change in blood glucose relative to vehicle
Procedure: Female NH/Swiss mice (˜8-20 weeks of age), (Harlan, Indianapolis, Ind., USA), housed 3 mice per cage, are allowed ad libitum access to food and water until the start of the experiment. At two hours prior to treatment, access to food is restricted.
At the time of treatment, the tip of the tail is pricked with a needle to obtain 1 μl blood as a “pre-treatment” control blood sample. Immediately thereafter, each mouse is injected intraperitoneally (IP) with a test sample (1 nmol/kg or 2 nmol/kg) or 200 μl vehicle (10% DMSO saline). Additional blood samples are collected at 30, 60, 120, 180, and 240 minutes after injection.
Blood glucose is measured with a glucose oxidase biosensor (OneTouch® Ultra® (LifeScan, Inc., a Johnson & Johnson Company, Milpitas, Calif.)). At each time point, the effect of the test sample is expressed as the percent change in blood glucose relative to mice injected with vehicle only. Test samples and vehicle controls are also compared to their respective “pre-treatment” controls.
Significant test sample effects are identified by ANOVA (p<0.05). Where a significant difference existed, test means are compared to the control mean with Dunnett's post test using GraphPad Prism version 4.00 for Windows, GraphPad Software, San Diego Calif. USA, www.graphpad.com).

[4] = target: T1, GLP-1 receptor, endogenous in RINm5f …; test: 125I-GLP-1 displacement, RINm5f membranes
[5] = target: T1, GLP-1 receptor, endogenous in RINm5f …; test: cell-based or functional assay

Molecule	EC50 [1] [nM]	plasma stability as compared to native GLP-1 [2]	GLU LOWERING AUC240 @2 nmol/kg [3] [%]	also measured
CC[C@H](C)[C@H](NC(=O)[C@@H]1CCCN1C(=O)[C@@H](NC(=O)CNC(=O)CNC(=O)CNC(=O)[C@H](CO)NC(=O)[C@@H]1CCCN1C(=O)[C@H](CCCNC(=N)N)NC(=O)CNC(=O)[C@H](CCCCN)NC(=O)[C@@H](NC(=O)[C@H](CC(C)C)NC(=O)[C@H](Cc1c[nH]c2ccccc12)NC(=O)[C@H](C)NC(=O)[C@@H](NC(=O)[C@H](Cc1ccccc1)NC(=O)[C@H](CCC(=O)O)NC(=O)[C@H](CCCCN)NC(=O)[C@H](C)NC(=O)[C@H](C)NC(=O)[C@H](CCC(N)=O)NC(=O)CNC(=O)[C@H](CCC(=O)O)NC(=O)[C@H](CC(C)C)NC(=O)[C@H](Cc1ccc(O)cc1)NC(=O)[C@H](CO)NC(=O)[C@H](CO)NC(=O)[C@@H](NC(=O)[C@H](CC(=O)O)NC(=O)[C@H](CO)NC(=O)[C@@H](NC(=O)[C@H](Cc1ccccc1)NC(=O)[C@@H](NC(=O)CNC(=O)[C@H](CCC(=O)O)NC(=O)[C@H](C)NC(=O)[C@@H](N)Cc1c[nH]cn1)[C@@H](C)O)[C@@H](C)O)C(C)C)[C@@H](C)CC)C(C)C)[C@@H](C)CC)C(N)=O [Cmpd 4888]	0.17			
CC[C@H](C)[C@H](NC(=O)[C@H](Cc1ccccc1)NC(=O)[C@H](CC(C)C)NC(=O)[C@H](CCCNC(=N)N)NC(=O)[C@H](C)NC(=O)[C@H](C)NC(=O)[C@H](CCC(=O)O)NC(=O)[C@H](CCC(=O)O)NC(=O)[C@H](CCC(=O)O)NC(=O)[C@H](CC(C)C)NC(=O)[C@H](Cc1ccc(O)cc1)NC(=O)[C@H](CO)NC(=O)[C@H](CO)NC(=O)[C@@H](NC(=O)[C@H](CC(=O)O)NC(=O)[C@H](CC(N)=O)NC(=O)[C@@H](NC(=O)[C@H](Cc1ccc(O)cc1)NC(=O)[C@@H](NC(=O)CNC(=O)[C@H](CCC(=O)O)NC(=O)CNC(=O)[C@@H](N)Cc1c[nH]cn1)[C@@H](C)O)[C@@H](C)O)C(C)C)C(=O)N[C@@H](CCC(=O)O)C(=O)N[C@@H](Cc1c[nH]c2ccccc12)C(=O)N[C@@H](CC(C)C)C(=O)N[C@@H](CCCCN)C(=O)N[C@@H](CCC(N)=O)C(=O)NCC(=O)NCC(=O)N1CCC[C@H]1C(=O)N[C@@H](CO)C(=O)N[C@@H](CO)C(=O)NCC(=O)N[C@@H](C)C(=O)N1CCC[C@H]1C(=O)N1CCC[C@H]1C(=O)N1CCC[C@H]1C(=O)N[C@@H](CO)C(N)=O [Cmpd 5182]		increased plasma stability	−16	plasma stability as compared to native GLP-1 ([2]; second, narrower list of b152): increased plasma stability
CCCCCCCC[C@H](NC(=O)[C@H](CCCCN)NC(=O)[C@H](CCCCN)NC(=O)[C@@H]1CCCN1C(=O)[C@H](CCCCN)NC(=O)CNC(=O)[C@H](CC(N)=O)NC(=O)[C@H](CCCCN)NC(=O)[C@H](CC(C)C)NC(=O)[C@H](Cc1c[nH]c2ccccc12)NC(=O)[C@H](CCC(=O)O)NC(=O)[C@@H](NC(=O)[C@H](Cc1ccccc1)NC(=O)[C@H](CC(C)C)NC(=O)[C@H](CCCNC(=N)N)NC(=O)[C@@H](NC(=O)[C@H](C)NC(=O)[C@H](CCC(=O)O)NC(=O)[C@H](CCC(=O)O)NC(=O)[C@H](CCC(=O)O)NC(=O)[C@H](C)NC(=O)[C@H](CCC(N)=O)NC(=O)[C@H](CCCCN)NC(=O)[C@H](CO)NC(=O)[C@H](CC(C)C)NC(=O)[C@H](CC(=O)O)NC(=O)[C@H](CO)NC(=O)[C@@H](NC(=O)[C@H](Cc1ccccc1)NC(=O)[C@@H](NC(=O)CNC(=O)[C@H](CCC(=O)O)NC(=O)CNC(=O)[C@@H](N)Cc1c[nH]cn1)[C@@H](C)O)[C@@H](C)O)C(C)C)[C@@H](C)CC)C(=O)N[C@@H](CCCNC(=N)N)C(=O)N[C@@H](Cc1ccc(O)cc1)C(=O)N[C@@H](CO)C(=O)O [Cmpd 5268] (H-HGEGTFTSDLSKQAEEEAVRLFIEWLKNGKPKK[Gly(octyl)]RYS-OH; N-terminus assumed)	0.489		−8	
CCCCCCCC[C@H](NC(=O)[C@H](CCCCN)NC(=O)[C@H](CCCCN)NC(=O)[C@@H]1CCCN1C(=O)[C@H](CCCCN)NC(=O)CNC(=O)[C@H](CC(N)=O)NC(=O)[C@H](CCCCN)NC(=O)[C@H](CC(C)C)NC(=O)[C@H](Cc1ccccc1)NC(=O)[C@H](CCC(=O)O)NC(=O)[C@@H](NC(=O)[C@H](Cc1ccccc1)NC(=O)[C@H](CC(C)C)NC(=O)[C@H](CCCNC(=N)N)NC(=O)[C@@H](NC(=O)[C@H](C)NC(=O)[C@H](CCC(=O)O)NC(=O)[C@H](CCC(=O)O)NC(=O)[C@H](CCC(=O)O)NC(=O)[C@H](CC(C)C)NC(=O)[C@H](CCC(N)=O)NC(=O)[C@H](CCCCN)NC(=O)[C@H](CO)NC(=O)[C@H](CC(C)C)NC(=O)[C@H](CC(=O)O)NC(=O)[C@H](CO)NC(=O)[C@@H](NC(=O)[C@H](Cc1ccccc1)NC(=O)[C@@H](NC(=O)CNC(=O)[C@H](CCC(=O)O)NC(=O)CNC(=O)[C@@H](N)Cc1c[nH]cn1)[C@@H](C)O)[C@@H](C)O)C(C)C)[C@@H](C)CC)C(=O)N[C@@H](CCCNC(=N)N)C(=O)N[C@@H](Cc1ccc(O)cc1)C(=O)N[C@@H](CO)C(=O)O [Cmpd 5269]	1.31		−14	
CC[C@H](C)[C@H](NC(=O)[C@H](Cc1ccccc1)NC(=O)[C@H](CC(C)C)NC(=O)[C@H](CCCNC(=N)N)NC(=O)[C@@H](NC(=O)[C@H](C)NC(=O)[C@H](CCC(=O)O)NC(=O)[C@H](CCC(=O)O)NC(=O)[C@H](CCC(=O)O)NC(=O)[C@H](CC(C)C)NC(=O)[C@H](Cc1ccc(O)cc1)NC(=O)[C@H](CCC(=O)O)NC(=O)[C@@H](NC(=O)[C@@H](NC(=O)[C@H](CC(=O)O)NC(=O)[C@H](CC(N)=O)NC(=O)[C@@H](NC(=O)[C@H](Cc1ccc(O)cc1)NC(=O)[C@@H](NC(=O)CNC(=O)[C@H](CCC(=O)O)NC(=O)CNC(=O)[C@@H](N)Cc1c[nH]cn1)[C@@H](C)O)[C@@H](C)O)C(C)C)[C@@H](C)O)C(C)C)C(=O)N[C@@H](CCC(=O)O)C(=O)N[C@@H](Cc1c[nH]c2ccccc12)C(=O)N[C@@H](CC(C)C)C(=O)N[C@@H](CCCCN)C(=O)N[C@@H](CC(N)=O)C(=O)NCC(=O)NCC(=O)N1CCC[C@H]1C(=O)N[C@@H](CO)C(=O)N[C@@H](CO)C(=O)NCC(=O)N[C@@H](C)C(=O)N1CCC[C@H]1C(=O)N1CCC[C@H]1C(=O)N1CCC[C@H]1C(=O)N[C@@H](CO)C(N)=O [Cmpd 5271]		increased plasma stability	−17	
GLP-1-(7-37)-GG-(S)-2,6-diamino-1-(thiazolidin-2-cyano-3-y1)hexan-1-one amide (HAEGTFTSDVSSYLEGQAAKEFIAWLVKGRGGG; C-terminal cyano DPP4 inhibitor moiety, amide) [Cmpd 4845]	0.4			
HGEGTFTSDLSKQLEEKAAKEFIEWLIQGGPSKEIIS-OH [Cmpd 5101]	0.863	increased plasma stability	−10	plasma stability as compared to native GLP-1 ([2]; second, narrower list of b152): increased plasma stability
HGEGTFTSDLSKQVQEEAVRLFVEFLKN-NH2 [Cmpd 5035]	628			
HGEGTFTSDLVKILEAEAVRKFIEFLKN-NH2 [Cmpd 5052]	4.5			
HGEGTFTSDVTQQLEEEAVRLFIEWLKQGGPSSGAPPPS-NH2 [Cmpd 5099]	1.29	increased plasma stability		plasma stability as compared to native GLP-1 ([2]; second, narrower list of b152): increased plasma stability
HGEGTFTSDLVKILEAEAVRKFIEFLKN-NH2 [Cmpd 5052]				IC50 [4]: 0.56 nM; cAMP, CYCLASE GLP/GIP/CT (RIN) EC50 [5]: 4.5 nM
